How the values were obtained:
[1] = Antiproliferative activity against human H1975-TM cells harboring EGFR L858R/T790M/C797S mutant assessed as inhibition of cell growth incubated for 48 to 72 hrs by CCK-8 assay; type: functional, cell-based
HCC827 [2] = experiment: Antiproliferative activity against human HCC827 cells harboring EGFR Del19 mutant assessed as inhibition of cell growth incubated for 48 to 72 hrs by CCK-8 assay; type: functional, cell-based
A549 = experiment: Antiproliferative activity against human A549 cells harboring EGFR wild type assessed as inhibition of cell growth incubated for 48 to 72 hrs by CCK-8 assay; type: functional, cell-based
A-431 = experiment: Antiproliferative activity against human A-431 cells harboring EGFR wild type assessed as inhibition of cell growth incubated for 48 to 72 hrs by CCK-8 assay; type: functional, cell-based
NCI-H1975 [3] = experiment: Antiproliferative activity against human NCI-H1975 cells harboring EGFR L858R/T790M double mutant assessed as inhibition of cell growth incubated for 48 to 72 hrs by CCK-8 assay; type: functional, cell-based
[4] = Antitumor activity against human H1975-TM cells xenografted in BALB/c mouse assessed as tumor growth inhibition at 10 mg/kg,ip once daily for 14 days relative to control; type: functional; conditions: 336 h, time 14 day, read-out: TGI
HCC827 [5] = experiment: Antitumor activity against human HCC827 cells xenografted in BALB/c mouse assessed as tumor growth inhibition at 5 mg/kg,ip once daily for 28 days relative to control; type: functional; conditions: HCC827, 672 h, time 28 day, read-out: TGI
NCI-H1975 [6] = experiment: Antitumor activity against human NCI-H1975 cells xenografted in BALB/c mouse assessed as tumor growth inhibition at 10 mg/kg,ip once daily for 22 days relative to control; type: functional; conditions: NCI-H1975, 528 h, time 22 day, read-out: TGI

| IC50 (HCC827 [2]) [µM] | IC50 (A549) [µM] | IC50 (A-431) [µM] | IC50 (NCI-H1975 [3]) [µM] | Structure (SMILES) | IC50 [1] [µM] | inhibition in vivo at 10 mg/kg [4] [%] | inhibition in vivo at 5 mg/kg (HCC827 [5]) [%] | inhibition in vivo at 10 mg/kg (NCI-H1975 [6]) [%] |
| --- | --- | --- | --- | --- | --- | --- | --- | --- |
| 0.038 | > 20 | > 20 | 14.2 | Cc1ncsc1-c1ccc(CNC(=O)[C@@H]2C[C@@H](O)CN2C(=O)[C@@H](NC(=O)CCCCCCCCCCn2cc(COc3cc4ncnc(Nc5ccc(F)c(Cl)c5)c4cc3NC(=O)/C=C/CN3CCN(C)CC3)nn2)C(C)(C)C)cc1 | > 20 |  |  |  |
| 0.089 | > 20 | > 20 | 2.28 | Cc1ncsc1-c1ccc(CNC(=O)[C@@H]2C[C@@H](O)CN2C(=O)[C@@H](NC(=O)COCCOCCOCCn2cc(CCCCCOc3cc4ncnc(Nc5ccc(F)c(Cl)c5)c4cc3NC(=O)/C=C/CN3CCCCC3)nn2)C(C)(C)C)cc1 | > 20 |  |  |  |
| 0.011 | > 20 | > 20 | 1.48 | Cc1ncsc1-c1ccc(CNC(=O)[C@@H]2C[C@@H](O)CN2C(=O)[C@@H](NC(=O)CCCCCCCCCCn2cc(COc3cc4ncnc(Nc5ccc(F)c(Cl)c5)c4cc3NC(=O)/C=C/CN(C)C)nn2)C(C)(C)C)cc1 | > 20 |  |  |  |
| 0.05 | > 20 | > 20 | 4.96 | Cc1ncsc1-c1ccc(CNC(=O)[C@@H]2C[C@@H](O)CN2C(=O)[C@@H](NC(=O)CCCCn2cc(COCCOCCOCCOc3cc4ncnc(Nc5ccc(F)c(Cl)c5)c4cc3NC(=O)/C=C/CN3CCCCC3)nn2)C(C)(C)C)cc1 | > 20 |  |  |  |
| 0.027 | > 20 | > 20 | > 20 | Cc1ncsc1-c1ccc(CNC(=O)[C@@H]2C[C@@H](O)CN2C(=O)[C@@H](NC(=O)CCCCCCCCCCn2cc(CCCCCOc3cc4ncnc(Nc5ccc(F)c(Cl)c5)c4cc3NC(=O)/C=C/CN3CCCCC3)nn2)C(C)(C)C)cc1 | > 20 |  |  |  |
| 0.053 | > 20 | > 20 | 5.82 | Cc1ncsc1-c1ccc(CNC(=O)[C@@H]2C[C@@H](O)CN2C(=O)[C@@H](NC(=O)CCCCCCCn2cc(CCCCCOc3cc4ncnc(Nc5ccc(F)c(Cl)c5)c4cc3NC(=O)/C=C/CN3CCCCC3)nn2)C(C)(C)C)cc1 | > 20 |  |  |  |
| 0.01 | > 20 | > 20 | 3.08 | CCN(CC)C/C=C/C(=O)Nc1cc2c(Nc3ccc(F)c(Cl)c3)ncnc2cc1OCCCCCc1cn(CCCCCCCCCCC(=O)N[C@H](C(=O)N2C[C@H](O)C[C@H]2C(=O)NCc2ccc(-c3scnc3C)cc2)C(C)(C)C)nn1 | > 20 |  |  |  |
| 0.059 | > 20 | > 20 | 3.5 | CCN(CC)C/C=C/C(=O)Nc1cc2c(Nc3ccc(F)c(Cl)c3)ncnc2cc1OCCCCCc1cn(CCCCC(=O)N[C@H](C(=O)N2C[C@H](O)C[C@H]2C(=O)NCc2ccc(-c3scnc3C)cc2)C(C)(C)C)nn1 | > 20 |  |  |  |
| 0.004 | > 20 | > 20 | 1.93 | Cc1ncsc1-c1ccc(CNC(=O)[C@@H]2C[C@@H](O)CN2C(=O)[C@@H](NC(=O)COCCOCCn2cc(CCCCCOc3cc4ncnc(Nc5ccc(F)c(Cl)c5)c4cc3NC(=O)/C=C/CN3CCCCC3)nn2)C(C)(C)C)cc1 | > 20 |  |  |  |
| 0.039 | > 20 | > 20 | 7.46 | CCN(CC)C/C=C/C(=O)Nc1cc2c(Nc3ccc(F)c(Cl)c3)ncnc2cc1OCc1cn(CCCCC(=O)N[C@H](C(=O)N2C[C@H](O)C[C@H]2C(=O)N[C@H](C)c2ccc(-c3scnc3C)cc2)C(C)(C)C)nn1 | > 20 |  |  |  |
| 0.043 | > 20 | 11.4 | 2.55 | Cc1ncsc1-c1ccc(CNC(=O)[C@@H]2C[C@@H](O)CN2C(=O)[C@@H](NC(=O)CCCCCCCn2cc(COCCOCCOCCOc3cc4ncnc(Nc5ccc(F)c(Cl)c5)c4cc3NC(=O)/C=C/CN3CCCCC3)nn2)C(C)(C)C)cc1 | > 20 |  |  |  |
| 0.006 | > 20 | > 20 | > 20 | Cc1ncsc1-c1ccc(CNC(=O)[C@@H]2C[C@@H](O)CN2C(=O)[C@@H](NC(=O)CCCCCCCCCCn2cc(COc3cc4ncnc(Nc5ccc(F)c(Cl)c5)c4cc3NC(=O)/C=C/CN3CCCCC3)nn2)C(C)(C)C)cc1 | > 20 |  |  |  |
| 0.031 | > 20 | > 20 | 1.37 | CCN(CC)C/C=C/C(=O)Nc1cc2c(Nc3ccc(F)c(Cl)c3)ncnc2cc1OCCCCCc1cn(CCCCCCCC(=O)N[C@H](C(=O)N2C[C@H](O)C[C@H]2C(=O)NCc2ccc(-c3scnc3C)cc2)C(C)(C)C)nn1 | > 20 |  |  |  |
| 0.046 | > 20 | > 20 | 14.7 | Cc1ncsc1-c1ccc(CNC(=O)[C@@H]2C[C@@H](O)CN2C(=O)[C@@H](NC(=O)CCCCn2cc(CCCCCOc3cc4ncnc(Nc5ccc(F)c(Cl)c5)c4cc3NC(=O)/C=C/CN3CCCCC3)nn2)C(C)(C)C)cc1 | > 20 |  |  |  |
| 0.007 | 0.49 | 1.96 | 0.7 | COc1cc2ncnc(Nc3ccc(F)c(Cl)c3)c2cc1NC(=O)/C=C/CN1CCCCC1 [DACOMITINIB ANHYDROUS] | 7.01 |  | 90 | 67 |
| 0.03 | > 20 | > 20 | 0.96 | CCN(CC)C/C=C/C(=O)Nc1cc2c(Nc3ccc(F)c(Cl)c3)ncnc2cc1OCCCCCc1cn(CCCCCCCC(=O)N[C@H](C(=O)N2C[C@H](O)C[C@H]2C(=O)N[C@H](C)c2ccc(-c3scnc3C)cc2)C(C)(C)C)nn1 | > 20 |  |  |  |
| 0.169 | > 20 | > 20 | 14.3 | Cc1ncsc1-c1ccc(CNC(=O)[C@@H]2C[C@@H](O)CN2C(=O)[C@@H](NC(=O)COCCn2cc(CCCCCOc3cc4ncnc(Nc5ccc(F)c(Cl)c5)c4cc3NC(=O)/C=C/CN3CCCCC3)nn2)C(C)(C)C)cc1 | > 20 |  |  |  |
| 0.054 | > 20 | > 20 | 1.86 | CCN(CC)C/C=C/C(=O)Nc1cc2c(Nc3ccc(F)c(Cl)c3)ncnc2cc1OCCCCCc1cn(CCCCC(=O)N[C@H](C(=O)N2C[C@H](O)C[C@H]2C(=O)N[C@H](C)c2ccc(-c3scnc3C)cc2)C(C)(C)C)nn1 | > 20 |  |  |  |
| 0.019 | > 20 | > 20 | > 20 | Cc1ncsc1-c1ccc(CNC(=O)[C@@H]2C[C@@H](O)CN2C(=O)[C@@H](NC(=O)CCCCCCCCCCn2cc(COc3cc4ncnc(Nc5ccc(F)c(Cl)c5)c4cc3NC(=O)/C=C/CN3CCOCC3)nn2)C(C)(C)C)cc1 | > 20 |  |  |  |
| 0.084 | > 20 | > 20 | 2.85 | CCN(CC)C/C=C/C(=O)Nc1cc2c(Nc3ccc(F)c(Cl)c3)ncnc2cc1OCCCCCc1cn(CCOCCOCC(=O)N[C@H](C(=O)N2C[C@H](O)C[C@H]2C(=O)NCc2ccc(-c3scnc3C)cc2)C(C)(C)C)nn1 | > 20 |  |  |  |
| 0.01 | > 20 | > 20 | 0.69 | CCN(CC)C/C=C/C(=O)Nc1cc2c(Nc3ccc(F)c(Cl)c3)ncnc2cc1OCc1cn(CCCCCCCCCCC(=O)N[C@H](C(=O)N2C[C@H](O)C[C@H]2C(=O)N[C@H](C)c2ccc(-c3scnc3C)cc2)C(C)(C)C)nn1 | > 20 |  |  |  |
| 0.01 | > 20 | > 20 | 5.37 | CCN(CC)C/C=C/C(=O)Nc1cc2c(Nc3ccc(F)c(Cl)c3)ncnc2cc1OCCCCCc1cn(CCCCCCCCCCC(=O)N[C@H](C(=O)N2C[C@H](O)C[C@H]2C(=O)N[C@H](C)c2ccc(-c3scnc3C)cc2)C(C)(C)C)nn1 | > 20 |  |  |  |
| 0.018 | 9.3 | > 20 | 9.44 | Cc1ncsc1-c1ccc(CNC(=O)[C@@H]2C[C@@H](O)CN2C(=O)[C@@H](NC(=O)CCCCCCCCCn2cc(CCCCCOc3cc4ncnc(Nc5ccc(F)c(Cl)c5)c4cc3NC(=O)/C=C/CN3CCCCC3)nn2)C(C)(C)C)cc1 | > 20 |  |  |  |
| 0.015 | > 20 | 11.5 | 2.36 | Cc1ncsc1-c1ccc(CNC(=O)[C@@H]2C[C@@H](O)CN2C(=O)[C@@H](NC(=O)CCCCCCCCCCn2cc(COCCOCCOCCOc3cc4ncnc(Nc5ccc(F)c(Cl)c5)c4cc3NC(=O)/C=C/CN3CCCCC3)nn2)C(C)(C)C)cc1 | > 20 |  |  |  |

| Structure (SMILES) | IC50 (HCC827 [2]) [µM] | IC50 (A549) [µM] | IC50 (A-431) [µM] | IC50 (NCI-H1975 [3]) [µM] | IC50 [1] [µM] | inhibition in vivo at 10 mg/kg [4] [%] | inhibition in vivo at 5 mg/kg (HCC827 [5]) [%] | inhibition in vivo at 10 mg/kg (NCI-H1975 [6]) [%] |
| --- | --- | --- | --- | --- | --- | --- | --- | --- |
| C=CC(=O)Nc1cc(Nc2nccc(-c3cn(C)c4ccccc34)n2)c(OC)cc1N(C)CCN(C)C [OSIMERTINIB] | 0.006 | 1.23 | […] | […] | 6.7 | 27 |  |  |

— ChEMBL document CHEMBL5523716, “Discovery of novel EGFR-PROTACs capable of degradation of multiple EGFR-mutated proteins” (Eur J Med Chem, 2024)
